Laboratory results: patent US20260364057A1, “AMIDE COMPOUND, AND COMPOSITION AND USE THEREOF” (SIMCERE ZAIMING PHARMACEUTICAL CO., LTD., priority 2022, published 2026)

Tests used:
OVCAR3 cells = assay: Inhibition of proliferation of OVCAR-3 cells (Cell-Titer Glo); assay type: cell-based; details: Homo sapiens, OVCAR-3, 72 h, 3 days, 1000 cells/well
From the text: Test Example 2. Test on Inhibition of Proliferation of OVCAR-3 Cells by Compounds of Present Disclosure
Cell and material: The human ovarian cancer cell line OVCAR3 was purchased from ATCC (Cat. No. HTB-161™), RPMI 1640 medium (Gibco #A1049101), penicillin-streptomycin (Gibco #15140122), and 0.25% Trypsin-EDTA (Gibco #25200056) were purchased from Gibco (U.S.), bovine insulin (Yeasen #40107ES60) was purchased from Yeasen, 384-well plates (Corning #CLS3765) was purchased from Corning (U.S.), and Cell-Titer Glo reagent (Promega #G7568) was purchased from Promega (U.S.).
Cell culture: OVCAR3 cells were cultured in RPMI 1640 complete medium (RPMI 1640 medium containing 20% fetal bovine serum, […] bovine insulin, and 1% penicillin-streptomycin) in an incubator (37 °C, 5% CO2), and the cells could be used in experiments when in the logarithmic growth phase.
Cell proliferation activity test: The Cell-Titer Glo reagent was used to test the compound for inhibition of proliferation of the OVCAR3 cell strain. The compound formulated with DMSO and pure DMSO (control) were each added to a 384-well plate using an Echo instrument; the compound was subjected to 3-fold serial dilution starting from 30 μM to obtain 11 concentration points, and the volume of the compound or DMSO added was 100 nL.
OVCAR3 cells were digested and resuspended in RPMI 1640 complete medium, and the suspension was added to a 384-well plate (1000 cells/50 μL/well) to be well mixed with the compound. The mixture was incubated in an incubator (37 °C, 5% CO2) for 3 days. The Cell-Titer Glo reagent was added at 25 µL/well, and the resulting mixture was well mixed by shaking and then incubated for 10 min. The Cell-Titer Glo readings were measured with a Multimode Plate Reader (brand: PerkinElmer; model: SIC-PV-018).
A negative control group (Bottom) was set, and the negative control group was medium wells with 0.2% DMSO added and was defined as 100% proliferation inhibition; the positive control group (Top) was OVCAR3 cell wells with 0.2% DMSO added.
The percent proliferation inhibition (% Inhibition) was calculated, and the curves were fit using the four-parameter equation, Y=Bottom+(Top−Bottom)/(1+(IC50/X)^HillSlope), to obtain the proliferation inhibition IC50 of the compound. • Percent inhibition: % Inhibition=(1−(Signal−Bottom)/(Top−Bottom))×100%. • Signal: Cell-Titer Glo reading of wells with compound added; • Bottom: Cell-Titer Glo reading of negative control wells; • Top: Cell-Titer Glo reading of positive control wells.

Human KIF18A (1-376aa) = target: T1, Human KIF18A (1-376aa) (Homo sapiens, UniProt Q8NI77); assay: KIF18A enzyme activity assay (ADP-Glo); assay type: biochemical; details: microtubule 50 μg/mL, ATP (Km 70 μM), room temperature, 15 min, read-out: KIF18A inhibitory activity IC50
T1 construct: Human KIF18A (1-376aa) protease used in the experiments; purchased Shanghai Panchao Biotechnology Co., Ltd
T1 sequence (Q8NI77 1-376): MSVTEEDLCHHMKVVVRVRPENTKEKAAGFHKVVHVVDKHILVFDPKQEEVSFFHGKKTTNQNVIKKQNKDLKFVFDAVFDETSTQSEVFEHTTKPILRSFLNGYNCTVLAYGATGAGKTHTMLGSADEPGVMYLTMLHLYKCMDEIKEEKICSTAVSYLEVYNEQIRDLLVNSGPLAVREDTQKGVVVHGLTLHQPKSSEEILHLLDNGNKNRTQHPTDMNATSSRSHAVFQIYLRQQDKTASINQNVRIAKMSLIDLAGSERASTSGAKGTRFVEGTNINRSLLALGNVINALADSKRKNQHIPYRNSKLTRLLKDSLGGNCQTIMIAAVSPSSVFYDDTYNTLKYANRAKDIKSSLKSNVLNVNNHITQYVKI
Protocol: Test Example 1: KIF18A Enzyme Activity Assay
Based on the ADP-Glo™ Kinase Assay, the ADP amount generated in the reaction was detected to reflect the enzyme activity of KIF18A.
Human KIF18A (1-376aa) […] used in the experiments, expressed by Shanghai Panchao Biotechnology Co., Ltd., was stored at −80 °C (no more than 5 freeze-thaw cycles).
The assay kit (ADP-Glo™ Kinase Assay) was purchased from Promega (Cat. No. V9101) and stored at −30 °C. The kit detects the enzyme activity by measuring ADP generated in enzyme reaction. The KIF18A enzyme and ATP generate ADP. The remaining ATP in this reaction is consumed by the ADP-Glo reagent, while the ADP generated by the KIF18A enzyme reaction is converted back to ATP by the assay reagent. The ATP then reacts with luciferin in the presence of Ultra-Glo™ luciferase, producing luminescence. The luminescent signal is positively correlated with the activity of the KIF18A enzyme.
Compounds were each subjected to 3-fold serial dilution starting from 10 μM to obtain 10 concentration points. The compounds and pure DMSO (control) were pipetted into wells of a 384-well plate using an Echo instrument, and the total volume of compound and DMSO was 100 nL; sample concentrations of gradient dilution were obtained by the instrument based on different ratios. Preparation of a KIF18A enzyme reaction buffer: […], 10 mM MgCl2, 0.01% Pluronic F-68, 1 μM Taxol, and 50 μg/mL Microtubule. KIF18A and the enzyme reaction buffer were mixed, and then the mixed solution was added to the 384-well plate and incubated at room temperature for 15 min. ATP (Km 70 μM) was then added to the mixed solution, and the mixed solution was incubated at room temperature for 15 min. 10 μL of ADP-Glo™ Reagent was well mixed with 10 μL of the mixed solution, and the mixture was incubated at room temperature for 40 min. Finally, 20 μL of ADP-Glo™ Detection Reagent was added, and the mixture was incubated at room temperature for 30 min. The chemiluminescent signal in each well was measured using an Envision plate reader (PerkinElmer, emission wavelength: 400-700 nm). In the experiment, 1 column of wells with no compound and no enzyme (chemiluminescence value was taken as [RLU]background) and 1 column of wells with enzyme but no compound (chemiluminescence value was taken as [RLU]enzyme) were provided. The chemiluminescence value of the compound adding group was taken as [RLU]cpd. The inhibition rate of the compound on […] was calculated according to the following equation: inhibition rate (%)=([RLU]enzyme−[RLU]cpd)/([RLU]enzyme−[RLU]background)×100%, and the inhibitory activity IC50 value of the compound on the enzyme activity was calculated using a four-parameter Logistic Model method. In the following equation, x represents the logarithmic form of the concentration of compound, and f (x) represents an effect value (inhibition rate of enzyme activity at the concentration): F(x)=(A+((B−A)/(1+((C/x)^D)))). A. B, C, and D are four parameters.

| SMILES | IC50 (OVCAR3 cells) [µM] | IC50 (Human KIF18A (1-376aa)) [µM] |
| --- | --- | --- |
| O=C(Nc1cc2nccn2c(N2CCC(F)(F)CC2)n1)c1ccc(NS(=O)(=O)CCO)cc1N1CCC2(CC1)CC2 [Compound 14] | 0.0776 |  |
| O=C(Nc1cc2c(c(N3CCC(F)(F)CC3)c1)OCC2)c1ccc(NS(=O)(=O)CCO)cc1N1CCC2(CC1)CC2 [Compound 28] | 0.00367 | < 0.2 |
| O=C(Nc1cccn2c3c(nc12)CCCCC3)c1ccc(NS(=O)(=O)CCO)cc1N1CCC2(CC1)CC2 [Compound 29] | 0.0698 | < 0.2 |
| O=C(Nc1cccc2c1nc1n2CCCC1)c1ccc(S(=O)(=O)NCCO)cc1N1CCC2(CC1)CC2 [Compound 39] | 0.0755 | < 0.2 |
| O=C(Nc1cc2c(c(N3CCC(F)(F)CC3)c1)CCC2)c1ccc(NS(=O)(=O)CCO)cc1N1CCC2(CC1)CC2 [Compound 41] | 0.0168 | < 0.2 |
| O=C(Nc1cc2c(c3c1nc1n3CCCC1)OCC2)c1ccc(NS(=O)(=O)CCO)cc1N1CCC2(CC1)CC2 [Compound 42] | 0.0265 | < 0.2 |
| O=C(Nc1cn2ccnc2c(N2CCC(F)(F)CC2)n1)c1ccc(NS(=O)(=O)CCO)cc1N1CCC2(CC1)CC2 [Compound 44] | 0.00913 | < 0.2 |
| O=C(Nc1cc(N2CCC(F)(F)CC2)c2occc2c1)c1ccc(NS(=O)(=O)CCO)cc1N1CCC2(CC1)CC2 [Compound 45] | 0.00665 | < 0.2 |
| O=C(Nc1cccc2c1nc1n2CCC(F)(F)CC1)c1ccc(NS(=O)(=O)CCO)cc1N1CCC2(CC1)CC2 [Compound 49] | 0.0496 | < 0.2 |
| N#Cc1ccc(NC(=O)c2ccc(NS(=O)(=O)CCO)cc2N2CCC3(CC2)CC3)c2nc3n(c12)CCCC3 [Compound 50] | 0.0489 | < 0.2 |
| O=C(Nc1cc2c(c(N3CCOCC3)c1)OCC2)c1ccc(NS(=O)(=O)CCO)cc1N1CCC2(CC1)CC2 [Compound 51] | 0.0681 | < 0.2 |
| Cn1cc(NC(=O)c2ccc(NS(=O)(=O)CCO)cc2N2CCC3(CC2)CC3)nc(N2CCC(F)(F)CC2)c1=O [Compound 58] | 0.008 | < 0.2 |
| O=C(Nc1cc2c(c(N3CCC(F)(F)CC3)c1)OCCC2)c1ccc(NS(=O)(=O)CCO)cc1N1CCC2(CC1)CC2 [Compound 60] | 0.011 | < 0.2 |
| O=C(Nc1cccc2c3c(nn12)CCCCC3)c1ccc(NS(=O)(=O)CCO)cc1N1CCC2(CC1)CC2 [Compound 64] | 0.0657 | < 0.2 |
| O=C(Nc1cc2c(c(N3CCC(F)(F)CC3)n1)OCC2)c1ccc(NS(=O)(=O)CCO)cc1N1CCC2(CC1)CC2 [Compound 65] | 0.0167 | < 0.5 |
| O=C(Nc1cc2c(c(N3CCC(F)(F)CC3)n1)COC2)c1ccc(NS(=O)(=O)CCO)cc1N1CCC2(CC1)CC2 [Compound 67] | 0.07 | < 0.2 |

The next lines start with the values.

| IC50 (OVCAR3 cells) [µM] | IC50 (Human KIF18A (1-376aa)) [µM] | SMILES |
| --- | --- | --- |
| 0.0959 | < 0.2 | O=C(Nc1cccc2c1nc1n2CCCC1)c1ccc(NS(=O)(=O)CCO)cc1N1CCC2(CC1)CC2 [Compound 12] |
| 0.052 | < 0.2 | O=C(Nc1cccc2c1nc1n2CCCCC1)c1ccc(NS(=O)(=O)CCO)cc1N1CCC2(CC1)CC2 [Compound 24] |
| 0.0228 | < 0.2 | O=C(Nc1cccc2c1nc1n2CCOC1)c1ccc(NS(=O)(=O)CCO)cc1N1CCC2(CC1)CC2 [Compound 34] |
| 0.088 | < 0.2 | O=C(Nc1cccc2c1nc1n2CC2CCC1C2)c1ccc(NS(=O)(=O)CCO)cc1N1CCC2(CC1)CC2 (centres unmarked) [Compound 35] |
| 0.0366 | < 0.2 | O=C(Nc1cccc2c1nc1n2CC2CCC1O2)c1ccc(NS(=O)(=O)CCO)cc1N1CCC2(CC1)CC2 (centres unmarked) [Compound 40] |
| 0.0562 | < 0.2 | O=C(Nc1cccc2c1nc1n2C2CCC1CC2)c1ccc(NS(=O)(=O)CCO)cc1N1CCC2(CC1)CC2 [Compound 47] |
| 0.0204 | < 0.2 | O=C(Nc1cccc2c1nc1n2CC2CC12)c1ccc(NS(=O)(=O)CCO)cc1N1CCC2(CC1)CC2 (centres unmarked) [Compound 48] |
| 0.021 | < 0.2 | O=C(Nc1cccc2c1nc1n2CCOCC1)c1ccc(NS(=O)(=O)CCO)cc1N1CCC2(CC1)CC2 [Compound 53] |
| 0.021 | < 0.2 | O=C(Nc1cccc2c1nc1n2CCCOC1)c1ccc(NS(=O)(=O)CCO)cc1N1CCC2(CC1)CC2 [Compound 54] |
| 0.0175 | < 0.2 | CC1Cn2c(nc3c(NC(=O)c4ccc(NS(=O)(=O)CCO)cc4N4CCC5(CC4)CC5)cccc32)CO1 (centres unmarked) [Compound 55] |
| 0.0312 | < 0.2 | CC1OCCn2c1nc1c(NC(=O)c3ccc(NS(=O)(=O)CCO)cc3N3CCC4(CC3)CC4)cccc12 (centres unmarked) [Compound 56] |
| 0.0233 | < 0.2 | O=C(Nc1cccc2c1nc1n2CC2CC1O2)c1ccc(NS(=O)(=O)CCO)cc1N1CCC2(CC1)CC2 (centres unmarked) [Compound 59] |
| 0.077 | < 0.2 | O=C(Nc1cccc2c1nc1n2CCCCCC1)c1ccc(NS(=O)(=O)CCO)cc1N1CCC2(CC1)CC2 [Compound 61] |
| 0.0416 | < 0.2 | CC1CCCCc2nc3c(NC(=O)c4ccc(NS(=O)(=O)CCO)cc4N4CCC5(CC4)CC5)cccc3n21 (centres unmarked) [Compound 68] |
| 0.0933 | < 0.2 | O=C(Nc1cccc2c1nc1n2CC2CC2C1)c1ccc(NS(=O)(=O)CCO)cc1N1CCC2(CC1)CC2 (centres unmarked) [Compound 70] |
| 0.0942 | < 0.2 | O=C(Nc1cccc2c1nc1n2CCC2CC12)c1ccc(NS(=O)(=O)CCO)cc1N1CCC2(CC1)CC2 (centres unmarked) [Compound 71] |
| 0.0573 | < 0.2 | O=C(Nc1cccc2c1nc1n2C2CCC1C2)c1ccc(NS(=O)(=O)CCO)cc1N1CCC2(CC1)CC2 (centres unmarked) [Compound 72] |
